According to article PMC4976923, “Potent Allosteric Dengue Virus NS5 Polymerase Inhibitors: Mechanism of Action and Resistance Profiling” (PLoS Pathogens, 2016):
Where two headings read alike, the source gives them in different places.

Columns and labels:
DENV4 FL NS5 S797A = target: T1, DENV4 FL NS5 S797A (Dengue virus type 4, UniProt P09866, S3284A); format: biochemical; conditions: dnI FAPA; one experiment
T1 construct: Site-directed alanine mutations of DENV4 FL NS5 cDNA; made in house

DENV1 FL NS5 = target: T2, DENV1 FL NS5 (Dengue virus type 1, UniProt P17763); assay: DENV1 FL NS5 de novo initiation FAPA assay; format: biochemical; conditions: one experiment; read-out: DENV FL NS5 de novo initiation FAPA, IC50, DENV1
T2 construct: 100 nM DENV FL NS5 protein was added; made in house
Experimental: (§1) DENV1-4 FL NS5 dnI assays were performed as described previously. Briefly, compounds from 0–20 or -100 μM concentrations are two-fold serially diluted into 384-well black opaque plates (Corning Costar), after which 100 nM DENV FL NS5 protein was added and the plates incubated at RT for 20 min. RNA and ATTO-CTP, ATP, GTP and UTP were then added and the plates incubated for another 120 min. Reactions were stopped with buffer containing 25 nM CIP, re- incubated at RT for 60 min and read on a Tecan Safire II microplate reader. For order-of-addition experiments, DENV4 FL NS5 was incubated for one hour at RT with RNA, ATP, and GTP or RNA, ATP, GTP and ATTO-CTP, followed by exposure to serially diluted compounds for 20 min at RT. The missing components (ATTO-CTP and UTP or UTP alone) were added and the reactions continued for 120 min after which STOP buffer was added as before. All datapoints were performed in duplicate wells. Each compound was tested at least twice.
(§2) 2 Co mpound testing with DENV dn I FAPA assays. Final dn I assa y reaction mixtures
(§3) 3 contained 100 nM DENV 5 ´UTR-L-3´UTR IVT RNA, 20 µ M ATP, 20 µM GTP, 20 µM
(§4) 4 UTP, 5 µM ATTO -CTP, and 100 nM of DENV FL NS5 protein in 15 µl in assa y buffer
(§5) 5 comprising 50 mM Tris/ HCl, pH 7.5, 10 mM KCl, 1 mM MgCl2, 0.3 mM MnCl2 (DENV2
(§6) 6 and 4) or 1 mM MnCl 2 (DENV1 and 3), 0.001% Triton- X-100 and 10 µ M cystein e [ 1] . To
(§7) 7 perform dose-respons e inhibition measurements, compounds from 0- 20 or - 100 µM
(§8) 8 concentr ations are two -fold seriall y diluted into 384-well black opaqu e plat es (Corning
(§9) 9 Costar), after which 100 nM DENV FL NS5 protein was added into resp ect ive wells. The
(§10) 10 plates wer e sealed, b riefl y shak en and centrif uged at 1500 rpm for 30 sec and incubated at RT
(§11) 11 for 15 min. Thereafter,RNA and ATTO -CTP, ATP, GTP and UTP were added to the wells to
(§12) 12 start the reactions. The pl ates wer e re-seal ed, shaken and centrifuged as before, followed b y
(§13) 13 incubation RT for 120 min. Reactions were stopped by addition of 10 µl of 2.5X STOP
(§14) 14 buffer (200 mM NaCl, 25 mM MgCl2, 1.5M DEA, pH 10; Promega) with 25 nM calf
(§15) 15 intestinal phosphatase (CIP), re- incubation at RT for 60 min and read on a Tecan Safire II
(§16) 16 microplate reader. For o r der-of-addition experiments, DENV4 FL NS5 was incubated for one
(§17) 17 hour at RT with RNA, ATP, and GTP or RNA, ATP, GTP and ATTO-CTP, followed by
(§18) 18 exposure to seriall y dilut ed compounds for 20 mi n at RT. The missing components (ATTO-
(§19) 19 CTP and UTP or UTP alone) were added and the reactions continued for 120 min after which
(§20) 20 STOP buffer was added as before. All datapoints were performed in duplicate wells. Each
(§21) 21 compound was tested at l east twice.
(§22) 23 Compound testing in DENV1-4 infected cells by high content imaging. Approximatel y 7
(§23) 24 × 10^3 A549 cells per well were s eeded into 384-well plates in Ham’s F-12K medium

in vitro = format: cell-based; conditions: human, HuH-7 (DENV2 replicon cells); 48 hr; ATP levels
Experimental: A549, BHK-21 and Huh7 cells bearing stable DENV2 sub-genomic replicon or transiently electroporated DENV2-NGC replicon or infectious virus cDNAs were seeded into 384-well microplate (3,000 cells per well). After over-night incubation at 37°C with 5% CO2, the cells were treated with 2-fold serially diluted compounds, starting from 20 or 50 μM. At 48 hr of post-incubation, renilla luciferase activities were measured with the ViviRen live-cell substrate (Promega, USA) according to the manufacturer’s protocol. CellTiter-Glo reagent (Promega, USA) was then added to determine cytotoxic effects of compounds. For the HCV replicon assay, Huh-7.5 cells harboring the HCV replicon were seeded into a 96-well microplate (20,000 cells per well). At 48 hr after compound treatment, cells were assayed for firefly luciferase activity by using a Bright-Glo luciferase assay (Promega, USA). NITD-008, a nucleoside inhibitor of DENV and HCV was added as a control.

DENV4 FL NS5 [1] = target: T3, DENV4 FL NS5 (Dengue virus type 4, UniProt P09866); format: biochemical; conditions: for mode of inhibition with respect to viral RNA substrate / mode of inhibition with respect to GTP: Lineweaver-Burk plots; for mode of inhibition with respect to viral RNA substrate: 0–500 nM RNA; for mode of inhibition with respect to GTP: 0–50 μM GTP
T3 construct: 100 nM DENV FL NS5 protein was added; made in house

DENV4 FL NS5 [2] = target: T3, DENV4 FL NS5; assay: biochemical
Experimental: as §1, with “Reactions were stopped with buffer containing 25 nM CIP, re- incubated at RT for 60 min and read on a Tecan Safire II microplate reader.” left out
as §2, §3, §4, §5, §6, §7, §8, §9, §10, §11, §12
(§24) 13 incubation RT for 120 min.
as §15, §16, §17, §18, §19, §20
21 compound was tested at l east twice. […]

DENV3 FL NS5 = target: T4, DENV3 FL NS5 (Dengue virus type 3, UniProt Q6YMS4); assay: DENV3 FL NS5 de novo initiation FAPA assay; format: biochemical; conditions: one experiment; read-out: DENV FL NS5 de novo initiation FAPA, IC50, DENV3
T4 construct: 100 nM DENV FL NS5 protein was added; made in house
Experimental: as §1, §2, §3, §4, §5, §6, §7, §8, §9, §10, §11, §12, §13, §14, §15, §16, §17, §18, §19, §20, §21, §22, §23

DENV2 FL NS5 = target: T5, DENV2 FL NS5 (Dengue virus type 2, UniProt P14340); assay: DENV2 FL NS5 de novo initiation FAPA assay; format: biochemical; conditions: one experiment; read-out: DENV FL NS5 de novo initiation FAPA, IC50, DENV2
T5 construct: made in house
Experimental: as §1, with “Reactions were stopped with buffer containing 25 nM CIP, re- incubated at RT for 60 min and read on a Tecan Safire II microplate reader.” left out
as §2, §3, §4, §5, §6, §7, §8, §9, §10, §11, §12, §24, §15, §16, §17, §18, §19, §20, §21, §22, §23

[3] = tested on: DENV2-NGC Ren-LUC Replicon in HuH-7; assay: Stable HuH-7 DENV2-NGC renilla luciferase replicon assay; format: cell-based; conditions: Dengue virus, DENV2, Huh-7, 48 h, read-out: HuH-7 DENV Replicon, DENV2, EC50
DENV4 FL NS5 [4] = target: T3, DENV4 FL NS5; assay: biochemical; conditions: Enzyme + compound; averaged from >3 experiments; read-out: Elongation IC50
DENV4 FL NS5 W803A = target: T6, DENV4 FL NS5 W803A (Dengue virus type 4, UniProt P09866, W3291A); format: biochemical; conditions: dnI FAPA; one experiment
T6 construct: Site-directed alanine mutations of DENV4 FL NS5 cDNA; made in house

DENV4 FL NS5 [5] = target: T3, DENV4 FL NS5; conditions: Enzyme + compound 20 min, then ssRNA and nucleotides, 2 hr; read-out: DENV FL NS5 de novo initiation FAPA, IC50, DENV4; cited from earlier work
[6] = target: DENV4 RdRp domain (aa 268–900) (Dengue virus type 4, UniProt P09866); assay: Thermo-denaturation assay, recombinant RdRp domain; format: binding; conditions: +50 μM compound; DMSO control 50
Experimental: (§25) Site-directed alanine mutations of DENV4 FL NS5 cDNA were performed using pET28-D4-MY01-22713 NS5FL [23] as a template, according to the manufacturer’s protocol (Stratagene, USA). Protein expressions of DENV1-4 FL NS5 and their stability analyses by thermo-fluorescence were performed as described previously. DENV de novo initiation and elongation FAPA assays were earlier described. […]
(§26) 6 Fi g .5. Ef fects of N -pocket compounds on DENV pol ymerase thermo-stability. Melting
(§27) 7 temperatur e (Tm) w as ass essed b y thermo-d enatur ation in presence of the S YPRO Oran ge
(§28) 8 dye as described in Materials and Methods. (A-F) Representative meltin g curves of DEN V4
(§29) 10 inhibitors or 5 % DMSO control. […]
(§30) 16 controls treated with DMSO.

DENV4 FL NS5 [7] = assay: Thermo-denaturation assay, recombinant FL NS5; format: binding; conditions: +50 μM compound; DMSO control 42.5
Experimental: as §25, §26, §27, §28, §29, §30

[8] = Enzyme + compound 20 min, then ssRNA and nucleotides, 2 hr, averaged from ≥3 experiments, read-out: DENV FL NS5 de novo initiation FAPA, IC50, DENV4
[9] = representative dose-response curve, read-out: IC50, best-fit value of representative curve (Fig 1A in S1 Text)

SMILES	S797A IC50 (DENV4 FL NS5 S797A)	IC50 (DENV1 FL NS5) [nM]	CC50 (in vitro) [nM]	mode of inhibition with respect to viral RNA substrate (DENV4 FL NS5 [1])	mode of inhibition with respect to GTP (DENV4 FL NS5 [1])	IC50 (DENV4 FL NS5 [2]; [8]) [nM]	IC50 (DENV4 FL NS5 [2]; compound added to enzyme-dsRNA complex, read-out: de novo IC50, order of addition: [Enzyme + RNA+ ATP+GTP+ATTO-CTP] + compound) [nM]	IC50 (DENV4 FL NS5 [2]; compound added to enzyme-dsRNA complex, read-out: de novo IC50, order of addition: [Enzyme + RNA+ATP+GTP] + compound) [nM]	IC50 (DENV4 FL NS5 [2]; compound added to pre-formed enzyme-ssRNA complex, read-out: de novo IC50, order of addition: [Enzyme + RNA] + compound) [nM]	IC50 (DENV4 FL NS5 [2]; [9]) [nM]	IC50 (DENV3 FL NS5) [nM]	IC50 (DENV2 FL NS5) [nM]	EC50 [3] [nM]	IC50 (DENV4 FL NS5 [4]) [nM]	W803A IC50 (DENV4 FL NS5 W803A)	IC50 (DENV4 FL NS5 [5]) [nM]	Protein melting temperature Tm with compound, RdRp domain [6] [°C]	Protein melting temperature Tm with compound, FL NS5 (DENV4 FL NS5 [7]) [°C]	mode of inhibition at high GTP concentrations (DENV4 FL NS5 [1]; high GTP concentrations)
Nc1nc2c(ncn2[C@@H]2O[C@H](COP(=O)(O)OP(=O)(O)OP(=O)(O)O)C[C@H]2O)c(=O)[nH]1 [3'dGTP, reference compound]	retained the same IC50	520	> 100000	non-competitive	competitive	790 ± 200	710 ± 200	740 ± 260	440 ± 20	513	270	620	> 100000	430 ± 290	retained the same IC50	–	–	–	–
COc1ccc(CC(=O)O)cc1-c1ccccc1 [Compound 3]	–	769000	> 100000	–	–	–	–	–	–	788000	796000	769000	> 100000	–	–	733000 ± 10600	–	–	–
COc1ccc(CC(=O)O)cc1-c1ccc(Cl)s1 [Compound 3i]	–	46600	> 100000	–	–	30700 ± 9400	–	–	–	30900	66800	37200	> 100000	–	–	–	–	–	–
O=C(O)Cc1cc(CC(=O)O)cc(-c2ccc(Cl)s2)c1 [Compound 11]	–	7100	> 100000	–	–	–	–	–	–	–	10700	39700	> 100000	–	–	–	–	–	–
O=C(O)Cc1cc(CC(=O)O)cc(-c2ccc(C#CCO)s2)c1 [Compound 15]	–	300	> 100000	uncompetitive	uncompetitive inhibition	–	–	–	–	–	460	2200	> 100000	–	–	–	65	52	non-competitive mode of inhibition
COc1cc(C)c(C(=O)NS(=O)(=O)c2ccccc2)cc1-c1ccc(C#CCO)s1 [Compound 25]	–	33	> 100000	–	–	–	–	–	–	281	40	106	11400	–	–	165 ± 108	–	–	–
COc1cc(OC)c(-c2ccc(C#CCO)s2)cc1C(=O)NS(=O)(=O)c1ccccc1 [Compound 26]	–	75	> 100000	–	–	–	–	–	–	115	57	145	21000	–	–	251 ± 129	–	–	–
